Reference: patent US5366980A, “Use of dextromethorphan and an oxidase inhibitor to treat dermatitis” (priority 1993, dated 1994)
Where “and” joins values, the source holds several entries; their conditions need not be identical. Equal entries are not always repeated. Where two headings read alike, the source gives them in different places.

How the values were obtained:
debrisoquin hydroxylase [1] = assay: Urinary DM/DR ratio after oral dextromethorphan without and with quinidine (Example 1); format: in vivo, human; conditions: ALS patients
Experimental: Since the research that led to this invention was done by a neurologist who was initially interested in finding out whether DM might be able to retard the progress of ALS, the initial studies were done on patients suffering from ALS, most of whom are adults more than 50 years old.
Six patients suffering from ALS were administered orally a single 60 mg dextromethorphan dose. Several hours later, a urine sample was collected, and the urine concentrations of dextromethorphan (DM) and dextrorphan (DR) were measured as described below to determine a DM/DR ratio. […] In a different week, 60 mg of DM and 150 mg of quinidine were orally administered to the same patients, and urinary DM and DR levels and DM/DR ratios were determined again.
DM and DR urinary levels without quinidine were determined by adding […] of thebaine as an internal standard to 1 mL of urine. To this was added 2000 units of beta-glucuronidase in 1 mL of acetate buffer (0.1M, pH 5.0). The mixture was incubated for 18 hours at 37° C. and then extracted by adding 1 mL of phosphate buffer (pH 12, 0.10M) and 7 mL of n-butanol/hexane (10:90 v/v). After mixing and centrifugation, the organic layer was transferred to a clean tube and acidified with 400 uL of 0.01 N HCL. 20 microliters (uL) of aqueous phase was injected into a high performance liquid chromatography (HPLC) system. The HPLC used a phenyl column equilibrated with a mobile phase of acetonitrile:water (51:49, v/v) containing 10 mM KHPO4, 10 mM hexane sulfonic acid, pH 4.0 (flow rate 1.2 mL/min). Detection of thebaine, dextromethorphan and dextrorphan was achieved by fluorescence (Kratos FS-980 Fluorometer) with an excitation wavelength of 228 nm and no emission cutoff filter.
A gas chromatograph/mass spectroscopy (gc/ms) assay was employed for determining dextromethorphan and dextrorphan levels in the presence of quinidine. Briefly, 0.5 ml urine samples were spiked with 500 nanograms (ng) of dimethacrine. The urine pH was adjusted to 5.0 with 0.1M acetate buffer (usually about 1.0 ml), and beta-glucuronidase was added (2000 units/ml urine). […]

[2] = Plasma concentration of DM 10-12 hours after oral dosing, without and with quinidine (Examples 2 and 3); format: in vivo, human; conditions: 10-12 hours, one value per patient
Experimental: Plasma Concentrations of DM
Five patients were orally administered 120 mg of DM, with no co-administration of quinidine. Between 10 and 12 hours later, blood was sampled, blood plasma was isolated by centrifugation, and the plasma was analyzed to determine the DM concentration using the thebaine/HPLC method.
During a different week, the same patients were orally administered 60 mg of DM (half the control dosage) and 150 mg of quinidine. Between 10 and 12 hours later, blood was sampled and the plasma was analyzed for DM using thebaine/HPLC.
Additional studies were undertaken using a range of dosages of DM to establish a dose-response curve that correlates the quantity of DM orally administered to a patient with blood plasma concentrations 10 to 12 hours later (determined as described in Example 2). All patients received 150 mg of quinidine daily. The results of those studies are shown in graphical form in FIG. 2, with mean values shown as open squares and standard deviation ranges shown by vertical bars. The ascending line through the median values is a linear approximation; a curve based on more extensive data would probably show a horizontal asymptote.

dermatitis = assay: Suppression of dermatitis (lichen planus; severe intermittent dermatitis) in patients; format: in vivo, human; conditions: patients treated with DM alone
Text: Suppression of Dermatitis
During an initial examination, the Applicant discovered that patient two, a Caucasion person who was suffering from ALS, suffered from a severe dermatologic condition involving lesions which appear in relatively small purplish patches ("polygonal papules"). Their condition had recently been diagnosed as lichen planus. The etiology is unknown, although a variety of drugs reportedly can aggravate this condition. The patient reported that the lesions were severely itchy, and they had been suffering from it for roughly ten years. They had been prescribed a number of drugs (including various steroids such as prednisone) in an effort to control the itching; the most recent prescription was "Doxepin," a tricyclic antidepressant. None of those agents offered much relief.
The patient began an initial treatment of quinidine alone (150 mg/day) for a week.
The specialist carried out a preliminary test involving DM and quinidine on a person who suffered from severe but intermittent dermatitis.

ALS patients [3] = assay: Tolerance and side effects in ALS patients and control subjects; format: in vivo, human; conditions: ALS patients and controls; drug(s) as labelled
Text: (§1) All patients who became involved in the study initially received DM and/or quinidine alone, to ensure that these drugs would not adversely affect them. The drugs were coadministered only after a tolerance and/or dosage range for one drug had been established for a patient.
However, quinidine is not pharmaceutically acceptable by all patients.

emotional lability = assay: Suppression of emotional lability in ALS patients; format: in vivo, human
Text: Emotional lability is a complex problem in which patients suffering from neurological damage (typically due to a stroke or head injury or a neurologic disease such as ALS or Alzheimer's disease) become unable to control spasmodic emotional outbursts such as explosive laughing or uncontrollable weeping. This discovery involving emotional lability is discussed in U.S. Pat. No. 5,206,248, which was also invented by the Applicant; the contents of that patent are incorporated by reference.
as §1

ALS = assay: Effect on progress of ALS; format: in vivo, human; conditions: loss of strength, slurring of speech, other muscular symptoms
Text: As mentioned above, DM is being studied as a possible treatment for neurodegenerative diseases such as Parkinson's disease, Alzheimer's disease, and ALS. Accordingly, the Applicant, a neurologist who specializes in working with ALS patients, undertook a study of DM to determine whether it might be able to retard the progress of ALS.
However, during the course of that study, other important findings emerged, as discussed below.

sigma receptors = conditions: reportedly; cited from earlier work
[4] = test system: N-methyl-D-aspartate (NMDA) receptors; conditions: reportedly; cited from earlier work
[5] = test system: neuronal calcium channels; conditions: reportedly, Carpenter et al 1988, cited from earlier work
[6] = most people; cited from earlier work
ALS patients [7] = conditions: DM up to about 300 mg/day or higher; quinidine in prolonged QT interval; cited from earlier work
debrisoquin hydroxylase [8] = assay: Urinary DM/DR ratio with other antioxidants in specific patients (Example 5); conditions: urine, HPLC; preliminary; one value per patient
Text: The second method involves sampling body fluids to compare the concentrations of DM and its primary metabolite, dextrorphan (DR). Although blood concentrations can be directly evaluated by drawing blood samples if desired, an easier and painless approach is to analyze urine samples. Blood or urine samples can be processed using methods such as high performance liquid chromatography (HPLC), as described in Example 5. […] The height of each peak, or the area under each peak, will indicate the quantity of each compound in the blood or urine sample. The heights of the DM and DR peaks are then divided, to determine the DM/DR ratio. The ratio which occurs after administration of a candidate antioxidant drug is compared to the DM/DR ratio in the same patient under control conditions (i.e., before administration of any antioxidant).
Preliminary Analysis of Other Antioxidants
To further evaluate that possibility, the Applicant arranged for chemical analyses of urine samples, using HPLC, in the labs of an independent investigator.

Structure (SMILES): COc1ccc2c(c1)[C@@]13CCCC[C@H]1[C@@H](C2)N(C)CC3 [DM, (+)-3-methoxy-N-methylmorphinan]
- Metabolism of DM in ALS patients vs healthy adults (debrisoquin hydroxylase [1]): No difference in the metabolism
- DM plasma level, with quinidine ([2]; 60 mg DM once oral + quinidine 150 mg): 33 ng/mL and 29.7 ng/mL and 29.0 ng/mL and 28.8 ng/mL and 45.6 ng/mL
- DM plasma level, no quinidine ([2]; 120 mg/day DM oral, quinidine dose 0): 9.3 ng/mL and 16.5 ng/mL and 6.05 ng/mL
- Therapeutic benefits (emotional lability and dermatitis) (dermatitis): not detectable
- Adverse side effects (ALS patients [3]): no ill effects
- Reduction of emotional lability symptoms (emotional lability): not observed in any patients who received DM alone
- Slowing of progressive ALS symptoms (ALS): not able to slow down the progressive loss of strength, slurring of speech, and other muscular symptoms
- Activity at sigma receptors (sigma receptors): sigma agonists
- Activity at NMDA receptors [4]: NMDA antagonists
- Activity at neuronal calcium channels ([5]; listed as Dextromethorphan): suppress neural activity mediated by neuronal calcium channels
- Activity at neuronal calcium channels ([5]; listed as dextromethorphan): calcium channel antagonists
- Disappearance from the bloodstream [6]: disappears fairly rapidly from the bloodstream
- Adverse effects (general knowledge) (ALS patients [7]): any adverse effects (such as dizziness or nausea) usually disappear quickly when the dosage is lowered
- DM/DR ratio, no antioxidant (debrisoquin hydroxylase [8]): 0.02 and 0.00 and 0.06 and 0.03
